# Reference: patent publication US20230033582A1, “POLYMERIC NANOPARTICLES FOR ENHANCED CANCER TREATMENT” (THE QUEEN'S UNIVERSITY OF BELFAST, priority 2019, published 2023)
# Tests used:
# [1] = tested on: MC38 cells; assay: Flow cytometry of SIINFEKL presentation on MHC I (SIINFEKL-bound MHC antibody) in MC38 cells; format: cell-based; settings: for presentation of NP-encapsulated OVA-derived SIINFEKL after pre-treatment: then OVA-NPs for 6 hours
# Experimental: FIG. 8: illustrate the results of Gemcitabine enhances SIINFEKL presentation: MC38 cells were pretreated with 30 nm Gemcitabine for 24 hours. Then, cells were treated with 1 μM SIINFEKL peptide for 6 hours. After 6 hours, cells were stained with PE-SIINFEKL-bound MHC antibody to determine the levels of SIINFEKL presentation. Presentation of SIINFEKL was enhanced after pre-treatment with Gemcitabine highlighting the potential of boosting CD8+ T cell recognition of tumour cells through combining the nanoformulation with Gemcitabine;
# (§1) FIG. 9: illustrate the results of Gemcitabine enhances the presentation of Ovalbumin-derived SIINFEKL encapsulated within nanoparticles: MC38 cells were pre-treated with 7.5, 15 and 30 nm Gemcitabine for 24 hours. Then, the cells were treated with OVA-NPs for 6 hours. After 6 hours, cells were stained with PE-SIINFEKL-Bound MHC antibody and an isotype control antibody to determine levels of OVA-derived SIINFEKL presentation. NP-encapsulated OVA-derived SIINFEKL was seen to be enhanced after pre-treatment with Gemcitabine;
# FIG. 10: illustrate the results of Epigenetic modifying agents (EMAs) enhance the presentation of Ovalbumin-derived SIINFEKL encapsulated within nanoparticles: MC38 cells were pre-treated with Entinostat and Decitabine. After 24 hours, cells were treated with OVA-NPs (250 μg/mL) for 6 hours. Cells were stained with SIINFEKL-bound MHC antibody and the surface presentation of SIINFEKL was determined by flow cytometry. Both agents in combination enhanced SIINFEKL presentation;
# as §1, with “11:” for “9:”, “Lysosome disruptive agent L-leucyl-L-leucine methyl ester (LLOME)” for “Gemcitabine”, “LLOME” for “7.5, 15 and 30 nm Gemcitabine”, “PE-SIINFEKL-bound” for “PE-SIINFEKL-Bound”, “LLOME;” for “Gemcitabine;”
# as §1, with “12:” for “9:”, “the anti-malarial Mefloquine” for “Gemcitabine”, “Mefloquine” for “7.5, 15 and 30 nm Gemcitabine”, “PE-SIINFEKL-bound” for “PE-SIINFEKL-Bound”, “Mefloquine.” for “Gemcitabine;”
# MC38 cells were seeded at 5×10^4 in 6 well plates and left overnight to adhere in 2 mL of the appropriate growth medium. Following this, the cells were treated with 250 μg/mL of either acid terminated poly(lactic-co-glycolic acid) (PLGA) nanoparticles (NPs) or PLGA NPs encapsulating the SIINFEKL peptide (for cells treated at 4 degrees C., cells were maintained at 4° C. for 45 minutes prior to treatment). Following treatment, the cells were washed 3 times with sterile PBS (4° C. treatment group were washed on ice) and the cells incubated for a following 6 hours at 37° C. The surface expression of SIINFEKL was determined by flow cytometry.
# MC38 cells were seeded at 5×10^4 in 6 well plates and left overnight to adhere in 2 mL of the appropriate growth medium. Following this, the cells were treated with 250 μg/mL of either acid terminated poly(lactic-co-glycolic acid) (PLGA) nanoparticles (NPs) or PLGA NPs encapsulating the Ovalbumin protein. Free, pre-processed SIINFEKL was used as a positive control. Cells were incubated for 24 hours at 37° C. Following this, the cells were collected and incubated with a PE-conjugated antibody specific for MHC-I bound to the SIINFEKL peptide (Biolegend, USA). Next, presentation of the SIINFEKL peptide was assessed by flow cytometry. […]
# [2] = molecular target: SIINFEKL bound to MHC class I on the cell surface (UniProt P01901); assay: flow cytometry, JAWS II cells treated with free SIINFEKL
# [3] = tested on: JAWS II cells; assay: Flow cytometry of SIINFEKL presentation on MHC I (SIINFEKL-bound MHC antibody) in JAWS II dendritic cell line; format: cell-based; settings: FIG. 5, free SIINFEKL positive control, 6 hours
# Experimental: FIG. 5: illustrate the results of Nanoparticle encapsulated SIINFEKL is presented on MHC I in the JAWS II dendritic cell line: JAWS II cells were seeded in 6 well plates at 1×10^5 and left overnight. The following day, cells were treated with either 500 μg of PLGA-SIINFEKL NP (SIINFEKL NP), PLGA NP (B-NP) or free SIINFEKL (Positive control). The cells were incubated at 37° C. in 5% CO2 for 6 hours. After incubation, an antibody specific for SIINFEKL bound to MHC I was used to detect cell surface expression of the antigen. Assessment was undertaken using flow cytometry. An Isotype specific IgG control (SIINFEKL IgG) was used to detect non-specific binding of the antibody. […] Diagram is a representative figure from 3 independent experiments;
# FIG. 6: illustrate the results of Presentation of nanoparticle-encapsulated SIINFEKL is dependent on endocytosis: (A) JAWS II cells and (B) MC38 cells ells were treated with either 250 μg/mL blank nanoparticles (B-NP), 250 μg/mL nanoparticles encapsulating the SIINFEKL peptide (SIINFEKL-NP) or 1 μM free SIINFEKL (positive control) for 1 hour at either 4° C. or 37° C. Cells were washed to remove non-endocytosed nanoparticles or free peptide and were incubated at 37° C. Cells were stained with SIINFEKL-bound MHC antibody and SIINFEKL presentation was determined by flow cytometry. […]
# [4] = FIG. 11 and 12, MC38 cells pre-treated for 24 hours
compound,measurement,setting,value
Nc1ccccc1NC(=O)c1ccc(CNC(=O)OCc2cccnc2)cc1 [Entinostat],"SIINFEKL presentation after pre-treatment, both agents in combination","[1]; FIG. 10, MC38 cells pre-treated with Entinostat and Decitabine 24 hours, then OVA-NPs (250 μg/mL) for 6 hours",enhanced
Nc1ccn([C@@H]2O[C@H](CO)[C@@H](O)C2(F)F)c(=O)n1 [Gemcitabine],Presentation of SIINFEKL after pre-treatment,"[1]; FIG. 8, MC38 cells pretreated with 30 nm Gemcitabine for 24 hours, then 1 μM SIINFEKL peptide for 6 hours",enhanced
same,presentation of NP-encapsulated OVA-derived SIINFEKL after pre-treatment,"[1]; FIG. 9, MC38 cells pre-treated with 7.5, 15 and 30 nm Gemcitabine for 24 hours",enhanced
"COC(=O)[C@H](CC(C)C)NC(=O)[C@@H](N)CC(C)C [LLOME, L-leucyl-L-leucine methyl ester]",presentation of NP-encapsulated OVA-derived SIINFEKL after pre-treatment,[1]; [4],enhanced
OC(c1cc(C(F)(F)F)nc2c(C(F)(F)F)cccc12)C1CCCCN1 (centres unmarked) [Mefloquine],presentation of NP-encapsulated OVA-derived SIINFEKL after pre-treatment,[1]; [4],enhanced
"PE-conjugated antibody specific for MHC-I bound to the SIINFEKL peptide (Biolegend, USA)",positive cells,[2],100%
"SIINFEKL (Model Peptide) [SIINFEKL peptide, positive control]","SIINFEKL on the cell surface (fluorescent signal, geomean)","[1]; FIG. 3, MC38 cells, 1 μM SIINFEKL peptide for 4 hours",high levels SIINFEKL on the surface
same,cells positive for SIINFEKL-MHC I antibody staining,[3],~100%
